This series is described as follows: Solubility assessment and polymorph screen on Sample 1 (Form 1) of RAD1901-2HCl in 24 solvent systems. In kind it is physicochemical. Particulars: for Solubility observation at 10 vol.: 25 mg Sample 1, 10 vol. solvent (solvent per sample ID), stirred 25° C., shaken 50° C.; for Solubility observation at 20 vol.: 20 vol. solvent (solvent per sample ID); for Solubility observation at 40 vol.: 40 vol. solvent (solvent per sample ID); for Solubility observation at 60 vol.: 60 vol. solvent (solvent per sample ID); for XRPD of recovered solid (form): solid recovered after maturation, cooling or evaporation; for Observation after Cooled to 5° C.: clear solutions cooled 50° C. to 5° C. at 0.1° C./min; for Observation after Evaporation: slow evaporation at ambient conditions. The procedure:
Solubility assessment was carried out on the Sample 1 of RAD1901-2HCl (majorly Form 1 shown by XRPD) in 24 solvent systems in HPLC vials (sample IDs: A1 to A24). RAD1901-2HCl (25 mg) was treated with increasing volumes of solvent until the material fully dissolved or until a maximum of 60 vol had been used (Table 13).
After each addition of solvent, the system was stirred for 5 to 10 minutes at 25° C., then shaken at 50° C. for 5 to 10 minutes, and observations made. Samples were allowed to stand at room temperature for 5 min before the addition of a new aliquot of solvent. After the assessment was completed, the suspensions obtained were matured (maturation) and the clear solutions were cooled (cooling) and slowly evaporated (evaporation) as described below. All solids recovered from maturation, cooling and evaporation experiments were analyzed by high resolution XRPD.
The suspensions obtained during the solubility assessment were matured by shaken in a maturation chamber between 50° C. and RT (8 hr per cycle) for up to 5 days. Then the mixture was allowed to stand at room temperature for 10 minutes. The resulting solids were filtered and air dried and analyzed by XRPD. The clear solutions obtained during maturation were evaporated in ambient conditions and the resulting residues were analyzed by XRPD.
The clear solutions obtained during the course of the solubility assessment were cooled on a Polar Bear device from 50° C. to 5° C. at 0.1° C./min. Solids obtained upon cooling were recovered from the vials, air dried and analyzed by XRPD. If no solid was obtained, the solutions were evaporated slowly through a needle inserted into the septum cap of the vial until a solid appeared at ambient conditions and the resulting solids were filtered, air dried and analyzed by XRPD.

Entries after “also recorded” stand apart in the source; their conditions may differ. Marks after values point to notes of the source that are not given here.

In the case of `CCNCCc1ccc(CN(CC)c2cc(OC)ccc2[C@@H]2CCc3cc(O)ccc3C2)cc1.Cl.Cl` [Form A1], the “Solubility observation at 10 vol.” value was “X (X = suspension)”, the “Solubility observation at 20 vol.” value is “X (X = suspension)”, the “Solubility observation at 40 vol.” value is “X (X = suspension)” and the “Solubility observation at 60 vol.” value is “X (X = suspension)”. Further, the “XRPD of recovered solid (form)” value is given as “Form 1”.
Regarding `CCNCCc1ccc(CN(CC)c2cc(OC)ccc2[C@@H]2CCc3cc(O)ccc3C2)cc1.Cl.Cl` [Form A3], the “Solubility observation at 10 vol.” value is on record as “X (X = suspension)”, the “Solubility observation at 20 vol.” value is given as “X (X = suspension)”, the “Solubility observation at 40 vol.” value is reported as “X (X = suspension)” and the “Solubility observation at 60 vol.” value is given as “X (X = suspension)”. In addition, the “XRPD of recovered solid (form)” value is recorded as “Form 1”.
As for `CCNCCc1ccc(CN(CC)c2cc(OC)ccc2[C@@H]2CCc3cc(O)ccc3C2)cc1.Cl.Cl` [Form A5], the “Solubility observation at 10 vol.” value is “X (X = suspension)”, the “Solubility observation at 20 vol.” value is recorded as “X (X = suspension)”, the “Solubility observation at 40 vol.” value is “X (X = suspension)” and the “Solubility observation at 60 vol.” value is reported as “X (X = suspension)”. For the same compound, the “XRPD of recovered solid (form)” value is “Form 1”.
As for `CCNCCc1ccc(CN(CC)c2cc(OC)ccc2[C@@H]2CCc3cc(O)ccc3C2)cc1.Cl.Cl` [Form A20], the “Solubility observation at 10 vol.” value is listed as “+/− (+/− = nearly dissolved)”, the “Solubility observation at 20 vol.” value is “S (S = solution)”, the “Observation after Cooled to 5° C.” value is recorded as “Platelet” and the “XRPD of recovered solid (form)” value was “Pattern 3; also recorded: Form 3”.
Take `CCNCCc1ccc(CN(CC)c2cc(OC)ccc2[C@@H]2CCc3cc(O)ccc3C2)cc1.Cl.Cl` [Form A19]: the “Solubility observation at 10 vol.” value was “X (X = suspension)”, the “Solubility observation at 20 vol.” value is “X (X = suspension)”, the “Solubility observation at 40 vol.” value was “X (X = suspension)” and the “Solubility observation at 60 vol.” value is “X (X = suspension)”. Further, the “XRPD of recovered solid (form)” value is listed as “Form 1”.
Regarding `CCNCCc1ccc(CN(CC)c2cc(OC)ccc2[C@@H]2CCc3cc(O)ccc3C2)cc1.Cl.Cl` [Form A10], the “Solubility observation at 10 vol.” value is given as “X (X = suspension)”, the “Solubility observation at 20 vol.” value is given as “X (X = suspension)”, the “Solubility observation at 40 vol.” value was “X (X = suspension)” and the “Solubility observation at 60 vol.” value was “X (X = suspension)”. In addition, the “XRPD of recovered solid (form)” value is reported as “Form 1”.
Turning to `CCNCCc1ccc(CN(CC)c2cc(OC)ccc2[C@@H]2CCc3cc(O)ccc3C2)cc1.Cl.Cl` [Form A17], the “Solubility observation at 10 vol.” value is reported as “X (X = suspension)”, the “Solubility observation at 20 vol.” value is “X (X = suspension)”, the “Solubility observation at 40 vol.” value was “X (X = suspension)” and the “Solubility observation at 60 vol.” value is on record as “X (X = suspension)”. In addition, the “XRPD of recovered solid (form)” value is reported as “Form 1”.
For the compound `CCNCCc1ccc(CN(CC)c2cc(OC)ccc2[C@@H]2CCc3cc(O)ccc3C2)cc1.Cl.Cl` [Form A23], the “Solubility observation at 10 vol.” value is “X (X = suspension)”, the “Solubility observation at 20 vol.” value is “X (X = suspension)”, the “Solubility observation at 40 vol.” value was “+/− (+/− = nearly dissolved)” and the “Solubility observation at 60 vol.” value is “S (S = solution)”. The “Observation after Cooled to 5° C.” value is “S”, the “Observation after Evaporation” value is “Solids,” and the “XRPD of recovered solid (form)” value is given as “Form 3”.
For `CCNCCc1ccc(CN(CC)c2cc(OC)ccc2[C@@H]2CCc3cc(O)ccc3C2)cc1.Cl.Cl` [Form A6], the “Solubility observation at 10 vol.” value was “X (X = suspension)”, the “Solubility observation at 20 vol.” value is on record as “X (X = suspension)”, the “Solubility observation at 40 vol.” value is given as “X (X = suspension)” and the “Solubility observation at 60 vol.” value is reported as “X (X = suspension)”. The “XRPD of recovered solid (form)” value was “Form 3*”.
For the compound `CCNCCc1ccc(CN(CC)c2cc(OC)ccc2[C@@H]2CCc3cc(O)ccc3C2)cc1.Cl.Cl` [Form A14], the “Solubility observation at 10 vol.” value is on record as “X (X = suspension)”, the “Solubility observation at 20 vol.” value is “X (X = suspension)”, the “Solubility observation at 40 vol.” value was “X (X = suspension)” and the “Solubility observation at 60 vol.” value is “X (X = suspension)”. Besides, the “XRPD of recovered solid (form)” value is reported as “Form 1”.
Turning to `CCNCCc1ccc(CN(CC)c2cc(OC)ccc2[C@@H]2CCc3cc(O)ccc3C2)cc1.Cl.Cl` [Form A24], the “Solubility observation at 10 vol.” value is listed as “X (X = suspension)”, the “Solubility observation at 20 vol.” value is on record as “X (X = suspension)”, the “Solubility observation at 40 vol.” value is “+/− (+/− = nearly dissolved)” and the “Solubility observation at 60 vol.” value is listed as “S (S = solution)”. Besides, the “Observation after Cooled to 5° C.” value is on record as “S”, the “Observation after Evaporation” value is listed as “Solids” and the “XRPD of recovered solid (form)” value was “Form 3”.
`CCNCCc1ccc(CN(CC)c2cc(OC)ccc2[C@@H]2CCc3cc(O)ccc3C2)cc1.Cl.Cl` [Form A2]: the “Solubility observation at 10 vol.” value is reported as “X (X = suspension)”, the “Solubility observation at 20 vol.” value was “X (X = suspension)”, the “Solubility observation at 40 vol.” value is “X (X = suspension)” and the “Solubility observation at 60 vol.” value is given as “X (X = suspension)”. The “XRPD of recovered solid (form)” value is given as “Form 1”.
Regarding `CCNCCc1ccc(CN(CC)c2cc(OC)ccc2[C@@H]2CCc3cc(O)ccc3C2)cc1.Cl.Cl` [Form A4], the “Solubility observation at 10 vol.” value was “X (X = suspension)”, the “Solubility observation at 20 vol.” value is given as “X (X = suspension)”, the “Solubility observation at 40 vol.” value is listed as “X (X = suspension)” and the “Solubility observation at 60 vol.” value is on record as “X (X = suspension)”. For the same compound, the “XRPD of recovered solid (form)” value was “Form 1”.
On to `CCNCCc1ccc(CN(CC)c2cc(OC)ccc2[C@@H]2CCc3cc(O)ccc3C2)cc1.Cl.Cl` [Form A15], for which the “Solubility observation at 10 vol.” value is recorded as “X (X = suspension)”, the “Solubility observation at 20 vol.” value was “X (X = suspension)”, the “Solubility observation at 40 vol.” value is “X (X = suspension)” and the “Solubility observation at 60 vol.” value is “X (X = suspension)”. In addition, the “XRPD of recovered solid (form)” value was “Form 1”.
As to `CCNCCc1ccc(CN(CC)c2cc(OC)ccc2[C@@H]2CCc3cc(O)ccc3C2)cc1.Cl.Cl` [Form A12], the “Solubility observation at 10 vol.” value is given as “+/− (+/− = nearly dissolved)”, the “Solubility observation at 20 vol.” value was “S (S = solution)”, the “Observation after Cooled to 5° C.” value is “S” and the “Observation after Evaporation” value is given as “Solid”. Moreover, the “XRPD of recovered solid (form)” value is given as “Form 3”.
Consider `CCNCCc1ccc(CN(CC)c2cc(OC)ccc2[C@@H]2CCc3cc(O)ccc3C2)cc1.Cl.Cl` [Form A11], for which the “Solubility observation at 10 vol.” value was “S (S = solution)”, the “Observation after Cooled to 5° C.” value was “S” and the “Observation after Evaporation” value is on record as “S”.
On to `CCNCCc1ccc(CN(CC)c2cc(OC)ccc2[C@@H]2CCc3cc(O)ccc3C2)cc1.Cl.Cl` [Form A8], for which the “Solubility observation at 10 vol.” value is on record as “X (X = suspension)”, the “Solubility observation at 20 vol.” value is on record as “X (X = suspension)”, the “Solubility observation at 40 vol.” value is given as “X (X = suspension)” and the “Solubility observation at 60 vol.” value was “X (X = suspension)”. In addition, the “XRPD of recovered solid (form)” value is given as “Form 1”.
For `CCNCCc1ccc(CN(CC)c2cc(OC)ccc2[C@@H]2CCc3cc(O)ccc3C2)cc1.Cl.Cl` [Form A13], the “Solubility observation at 10 vol.” value was “X (X = suspension)”, the “Solubility observation at 20 vol.” value is reported as “X (X = suspension)”, the “Solubility observation at 40 vol.” value is on record as “X (X = suspension)” and the “Solubility observation at 60 vol.” value is “X (X = suspension)”. The “XRPD of recovered solid (form)” value is reported as “Form 1”.
In the case of `CCNCCc1ccc(CN(CC)c2cc(OC)ccc2[C@@H]2CCc3cc(O)ccc3C2)cc1.Cl.Cl` [Form A22], the “Solubility observation at 10 vol.” value was “+/− (+/− = nearly dissolved)”, the “Solubility observation at 20 vol.” value is reported as “S (S = solution)”, the “Observation after Cooled to 5° C.” value was “Some” and the “XRPD of recovered solid (form)” value is on record as “Form 3*”.
As to `CCNCCc1ccc(CN(CC)c2cc(OC)ccc2[C@@H]2CCc3cc(O)ccc3C2)cc1.Cl.Cl` [Form A7], the “Solubility observation at 10 vol.” value is “X (X = suspension)”, the “Solubility observation at 20 vol.” value was “X (X = suspension)”, the “Solubility observation at 40 vol.” value is “X (X = suspension)” and the “Solubility observation at 60 vol.” value was “X (X = suspension)”. The “XRPD of recovered solid (form)” value is given as “Form 1*”.
As for `CCNCCc1ccc(CN(CC)c2cc(OC)ccc2[C@@H]2CCc3cc(O)ccc3C2)cc1.Cl.Cl` [Form A21], where the note is “50° C./RT cycles (8 hr per cycle) up to 5 days”, the “Observation After 50/RT maturation” value is “S”.

Source of the values: patent US11643385B2, “Polymorphic forms of RAD1901-2HCl” (RADIUS PHARMACEUTICALS, INC., priority 2018, dated 2023).
